The source of these data is ChEMBL document CHEMBL4382280, “Inhibitors of G12C Mutant Ras Proteins for the Treatment of Cancers” (ACS Med Chem Lett, 2019).

This experiment concerns the target GTPase KRas (Homo sapiens, UniProt P01116, G12C). As to the kind of experiment: Inhibition of GDP loaded biotin-labeled KRAS G12C mutant (unknown origin) assessed as reduction in guanine nucleotide exchange preincubated for 4 hrs followed by GST-RAF-RBD addition in presence of GTPgammaS by FRET assay.

GTPase KRas, sequence (P01116 whole entry G12C): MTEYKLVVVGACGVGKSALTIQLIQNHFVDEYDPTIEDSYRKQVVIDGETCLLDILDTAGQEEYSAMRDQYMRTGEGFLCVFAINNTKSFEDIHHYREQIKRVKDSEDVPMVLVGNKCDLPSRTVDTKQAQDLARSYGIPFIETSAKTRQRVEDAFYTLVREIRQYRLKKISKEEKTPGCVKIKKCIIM

The IC50 is the point on the concentration scale where inhibition reaches its midpoint. With `C=CC(=O)N1CCN2c3ncnc4cc(-c5c(C)ccc6[nH]ncc56)c(Cl)c(c34)OC[C@@H]2C1` (stereo in doubt; form 1), the IC50 was 123 nM.
With `C=CC(=O)N1CCN2c3ncnc4cc(-c5c(C)ccc6[nH]ncc56)c(Cl)c(c34)OC[C@@H]2C1` (stereo in doubt; form 3), the IC50 was found to be 12 nM.
